What was measured:
[1] = system: T1, L-asparaginase from Streptomyces brollosae NEAE-115; conditions: 0.05 M Tris-HCl, pH 8.6, 37 °C (standard assay); 1-10 mM substrate
T1 construct: gene L-asparagine amidohydrolase

purified protein = substrate: NC(=O)C[C@H](N)C(=O)O; assay: purified protein; conditions: 0.05 M Tris-HCl, pH 8.6, 37 °C (standard assay), 1-10 mM substrate

Km [1] | Molecule | Km (purified protein)
2140 µM | NC(=O)C[C@H](N)C(=O)O [L-asparagine] | –
– | commercially available L-asparaginase from E. coli (Escherichia coli K-12) (protein) LPNITILATGGTIAGGGDSATKSNYTVGKVGVENLVNAVPQLKDIANVKGEQVVNIGSQDMNDNVWLTLAKKINTDCDKTDGFVITHGTDTMEETAYFLDLTVKCDKPVVMVGAMRPSTSMSADGPFNLYNAVVTAADKASANRGVLVVMNDTVLDGRDVTKTNTTDVATFKSVNYGPLGYIHNGKIDYQRTPARKHTSDTPFDVSKLNELPKVGIVYNYANASDLPAKALVDAGYDGIVSAGVGNGNLYKSVFDTLATAAKTGTAVVRSSRVPTGATTQDAEVDDAKYGFVASGTLNPQKARVLLQLALTQTKDPQQIQQIFNQY | 176 µM
